Experimental data published in patent EP4424327A1, “METHOD OR AGENT WITH HDAC REGULATOR, FOR TREATMENT OF DIABETES AND COMPLICATIONS” (Biozipcode, Inc., priority 2021, dated 2023).
Where a SMILES comes first, the peptide text is derived from it. [ ]: non-standard residue; d: D form. Aoe = N[C@@H](CCCCCC(=O)[C@@H]1CO1)C(=O)O

Assay: Treatment of diabetes mellitus with other HDAC regulators instead of givinostat (Example 7)
Type: in vivo
Conditions: used instead of givinostat; model and dose not stated

Compound | diabetes mellitus outcome
O=C(O)CCCc1ccccc1 [4-phenylbutyric acid] | similarly cured
O=C(CCCCCCSc1ccc2ccccc2c1)NO [(N-hydroxy-7-2-naphthylthio)heptanomide] | similarly cured
CCCC(=O)OCOC(=O)C(C)(C)C [(pivaloyloxy)methyl butyrate] | similarly cured
CN(C)CCCNC(=O)/C(=C/CCCCC(=O)NO)COc1cccc2ccccc12 [CG200745] | similarly cured
O=C(CCC1=CCCN(CCCc2ccccc2)C1=O)NO [KBH-A42] | similarly cured
CN(C)c1ccc(C(=O)NCc2ccc(/C=C/C(=O)NO)cc2)cc1 [SK-7041] | similarly cured
O=C(CCCCCCC(=O)Nc1ccc([C@H]2O[C@@H](CSc3nc(-c4ccccc4)c(-c4ccccc4)o3)C[C@@H](c3ccc(CO)cc3)O2)cc1)NO [Tubacin] | similarly cured
CN(C)Cc1c(C(=O)NCCOc2ccc(C(=O)NO)cc2)oc2ccccc12 [abexinostat] | similarly cured
O=C(CCCCCCCC(=O)NO)NO [azelaoyl-bis-hydroxamic acid] | similarly cured
O=C(/C=C/c1cccc(S(=O)(=O)Nc2ccccc2)c1)NO [belinostat] | similarly cured
O=C(/C=C/c1ccc(CN(CCO)CCc2c[nH]c3ccccc23)cc1)NO [dacinostat] | similarly cured
C=CCSSSCC=C [diallyl trisulfide] | similarly cured
Nc1ccccc1NC(=O)c1ccc(CNC(=O)OCc2cccnc2)cc1 [entinostat] | similarly cured
O=C(C=Cc1cccc(C(=O)NO)c1)NO [m-carboxycinnamic acid bis-hydroxamide] | similarly cured
Nc1ccccc1NC(=O)c1ccc(CNc2nccc(-c3cccnc3)n2)cc1 [mocetinostat] | similarly cured
O=C(NO)c1cnc(N2C[C@@H]3[C@H](C2)[C@H]3NCc2ccc3cc(F)ccc3n2)nc1 [nanatinostat] | similarly cured
CCCCc1nc2cc(/C=C/C(=O)NO)ccc2n1CCN(CC)CC [pracinostat] | similarly cured
Cn1cc(CNCC2CCN(c3ncc(C(=O)NO)cn3)CC2)c2ccccc21 [quisinostat] | similarly cured
CN(C)Cc1ccc(S(=O)(=O)n2ccc(/C=C/C(=O)NO)c2)cc1 [resminostat] | similarly cured
O=C(CCCCCCNC(=O)c1cnc(N(c2ccccc2)c2ccccc2)nc1)NO [rocilinostat] | similarly cured
O=C(CCCCCN1C(=O)c2cccc3cccc(c23)C1=O)NO [scriptaid] | similarly cured
CCCC(=O)[O-].[Na+] [sodium butyrate] | similarly cured
CC(=O)Nc1ccc(C(=O)Nc2ccccc2N)cc1 [tacedinaline] | similarly cured
O=C1N[C@@H](Cc2ccccc2)C(=O)N2CCC[C@@H]2C(=O)N[C@@H](CCCCCC(=O)[C@@H]2CO2)C(=O)N[C@H]1Cc1ccccc1 [trapoxin] (cyclo(FF[dP][Aoe])) | similarly cured
CC(/C=C/C(=O)NO)=C\[C@@H](C)C(=O)c1ccc(N(C)C)cc1 [trichostatin A] | similarly cured
O=C(CCCCCCC(=O)Nc1ccccc1)NO [vorinostat, suberoylanilide hydroxamic acid] | similarly cured
